Drawing on patent US9187471B2, “Pyrido [4,3-b] indole and pyrido [3,4-b] indole derivatives and methods of use” (Medivation Technologies, Inc., priority 2010, dated 2015), this text covers inhibition for eight compounds.

What is called inhibition is the drop in the measured response relative to a control, in per cent.

The target of experiment [1] is T1, human recombinant serotonin (5-Hydroxytryptamine) 5-HT2C receptor (Homo sapiens, UniProt P28335).
T1 construct: expressed in transfected cells; host or cells: CHO-K1
T1 sequence (P28335 33-458): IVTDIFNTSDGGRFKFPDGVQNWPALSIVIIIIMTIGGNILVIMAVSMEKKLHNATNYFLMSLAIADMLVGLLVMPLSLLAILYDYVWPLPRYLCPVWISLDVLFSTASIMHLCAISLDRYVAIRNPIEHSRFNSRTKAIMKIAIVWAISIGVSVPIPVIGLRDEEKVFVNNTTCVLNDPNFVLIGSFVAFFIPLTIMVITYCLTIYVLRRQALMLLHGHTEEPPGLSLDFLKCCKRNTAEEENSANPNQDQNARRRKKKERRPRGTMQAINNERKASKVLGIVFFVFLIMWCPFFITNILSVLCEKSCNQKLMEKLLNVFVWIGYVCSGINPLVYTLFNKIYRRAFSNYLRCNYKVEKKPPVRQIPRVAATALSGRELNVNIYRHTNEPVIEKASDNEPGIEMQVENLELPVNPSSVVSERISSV
Nature of the experiment: Serotonin 5-HT2C radioligand binding ([3H]Mesulergine). The settings on record: compound at 0.1 μM; read-out: Inhibition of ligand binding, Serotonin 5-HT2C (percent inhibition of specific binding). As for the experimental part:
Compounds of the invention were incubated with 1 nM [^3H]Mesulergine for 60 min at 25° C. Non-specific binding was estimated in the presence of 1 μM Mianserin. Receptor proteins were filtered and washed, the filters were then counted to determine [^3H]Mesulergine specifically bound.

Experiment [2] has as its target T2, human recombinant serotonin (5-Hydroxytryptamine) 5-HT5A receptor (Homo sapiens, UniProt P47898).
T2 construct: expressed in transfected cells; host or cells: CHO-K1
Put plainly: Serotonin 5-HT5A radioligand binding ([3H]LSD). As to conditions: compound at 0.1 μM; read-out: Inhibition of ligand binding, Serotonin 5-HT5A (percent inhibition of specific binding). On the procedure:
Compounds of the invention were incubated with 1.7 nM [^3H]Lysergic acid diethylamide (LSD) for 60 min at 37° C. […] Receptor proteins were filtered and washed, the filters were counted to determine [^3H]LSD specifically bound.

Experiment [3] addresses T3, human recombinant adrenergic α2A receptor (Homo sapiens, UniProt P08913).
T3 construct: expressed in transfected cells; host or cells: insect Sf9 cells
T3 sequence (P08913 1-465): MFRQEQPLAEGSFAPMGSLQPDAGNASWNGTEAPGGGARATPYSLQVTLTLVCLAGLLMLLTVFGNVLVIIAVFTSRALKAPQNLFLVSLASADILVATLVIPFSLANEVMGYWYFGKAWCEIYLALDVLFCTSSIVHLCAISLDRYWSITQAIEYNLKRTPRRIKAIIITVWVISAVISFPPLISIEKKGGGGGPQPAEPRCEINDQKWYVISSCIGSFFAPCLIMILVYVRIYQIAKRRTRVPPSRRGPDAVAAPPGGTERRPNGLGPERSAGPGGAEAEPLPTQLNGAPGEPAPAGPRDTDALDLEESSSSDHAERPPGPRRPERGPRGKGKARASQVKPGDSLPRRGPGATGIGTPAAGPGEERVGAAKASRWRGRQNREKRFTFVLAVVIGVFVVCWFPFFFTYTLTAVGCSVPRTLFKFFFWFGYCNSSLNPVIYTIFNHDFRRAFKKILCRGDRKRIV
Put plainly: Adrenergic α2A radioligand binding ([3H]MK-912). As to conditions: read-out: Adrenergic (0.1 μM) a2A, percent inhibition of specific binding; compound at 0.1 μM; 1 nM [3H]MK-912. On the procedure:
To evaluate in radioligand binding assays the activity of compounds of the invention, human recombinant adrenergic α2A receptor expressed in insect Sf9 cells (Uhlen, S. et al, J. Pharmacol. Exp. Ther. 271:1558, 1994) in a modified Tris-HCl buffer (50 mM Tris-HCl, pH 7.4, 12.5 mM MgCl2, 2 mM EDTA) was used. Compounds of invention were incubated with 1 nM [^3H]MK-912 for 60 min at 25° C. MK-912 is (2S-trans)-1,3,4,5′,6,6′,7,12b-octahydro-1′,3′-dimethyl-spiro[2H-benzofuro[2,3-a]quinolizine-2,4′(1′H)-pyrimidin]-2′(3′H)-one hydrochloride Non-specific binding was estimated in the presence of 10 μM WB-4101 (2-(2,6-Dimethoxyphenoxyethyl)aminomethyl-1,4-benzodioxane hydrochloride). Receptor proteins were filtered and washed, the filters were then counted to determine [^3H]MK-912 specifically bound. […] Compounds of the invention were tested in this biochemical assay and percent inhibition of specific binding was determined.

Another experiment concerns the target T4, Adrenergic α1B (Rattus norvegicus, UniProt P15823).
T4 construct: rat adrenergic α1D receptor obtained from Wistar Rat liver; from tissue; host or cells: Wistar rat liver
T4 sequence (P15823 1-515): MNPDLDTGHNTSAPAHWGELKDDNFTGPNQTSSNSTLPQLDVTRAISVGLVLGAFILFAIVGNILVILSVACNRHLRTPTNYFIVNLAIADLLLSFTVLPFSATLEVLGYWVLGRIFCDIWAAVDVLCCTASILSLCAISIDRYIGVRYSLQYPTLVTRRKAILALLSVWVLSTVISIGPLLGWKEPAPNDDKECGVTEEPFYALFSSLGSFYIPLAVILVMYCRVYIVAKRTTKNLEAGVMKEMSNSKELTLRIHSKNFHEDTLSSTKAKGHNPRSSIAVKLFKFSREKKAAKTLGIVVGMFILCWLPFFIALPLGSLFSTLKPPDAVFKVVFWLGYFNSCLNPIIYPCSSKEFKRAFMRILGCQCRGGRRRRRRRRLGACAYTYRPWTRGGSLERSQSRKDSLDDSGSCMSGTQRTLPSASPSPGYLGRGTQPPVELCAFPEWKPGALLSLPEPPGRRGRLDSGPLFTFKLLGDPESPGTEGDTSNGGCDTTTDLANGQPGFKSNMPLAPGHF
Nature of the experiment: Adrenergic α1B radioligand binding ([3H]Prazosin). The settings on record: read-out: Adrenergic (0.1 μM) a1B, percent inhibition of specific binding; compound at 0.1 μM; 0.25 nM [3H]Prazosin; Wistar Rat liver.

Molecules are shown by their SMILES.

T2 sequence (P47898 whole entry): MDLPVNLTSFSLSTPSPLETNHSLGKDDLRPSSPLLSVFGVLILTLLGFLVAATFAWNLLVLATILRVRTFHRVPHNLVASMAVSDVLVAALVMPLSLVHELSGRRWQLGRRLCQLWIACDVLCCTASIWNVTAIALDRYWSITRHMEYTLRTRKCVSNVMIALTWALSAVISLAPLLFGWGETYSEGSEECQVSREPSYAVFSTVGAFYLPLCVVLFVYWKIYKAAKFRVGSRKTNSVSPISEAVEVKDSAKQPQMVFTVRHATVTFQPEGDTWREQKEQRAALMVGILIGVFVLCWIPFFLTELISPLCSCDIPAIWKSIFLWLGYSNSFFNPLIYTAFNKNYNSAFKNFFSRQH
Method for Adrenergic α1B: To evaluate in radioligand binding assays the activity of compounds of the invention, rat adrenergic α1D receptor obtained from Wistar Rat liver (Garcia-S'ainz, J. et al, Biochem. Biophys. Res. Commun. 186:760, 1992; Michel, A. et al, Br. J. Pharmacol. 98:883, 1989) in a modified Tris-HCl buffer (50 mM Tris-HCl buffer, pH 7.4, 0.5 mM EDTA) was used. Compounds of the invention were incubated with 0.25 nM [^3H]Prazosin for 60 min at 25° C. Non-specific binding was estimated in the presence of 10 μM phentolamine Receptor proteins were filtered and washed, the filters were then counted to determine [^3H]Prazosin specifically bound. […] Compounds of the invention were tested in this biochemical assay and percent inhibition of specific binding was determined.

In the case of `Cc1ccc2c(c1)c1c(n2-c2ccccc2-c2cc3ccccc3s2)CCN(C)C1` [Compound No. 103, 5-(2-(benzo[b]thiophen-2-yl)phenyl)-2,8-dimethyl-2,3,4,5-tetrahydro-1H-pyrido[4,3-b]indole], the inhibition at 0.1 µM in experiment [1] stood at 43%; in experiment [2], 42%.
For `Cc1ccc2c(c1)c1c(n2-c2ccccc2-c2sccc2C)CCN(C)C1` [Compound No. 102, 2,8-dimethyl-5-(2-(3-methylthiophen-2-yl)phenyl)-2,3,4,5-tetrahydro-1H-pyrido[4,3-b]indole], in that order: 90% and 10%.
Turning to `Cc1ccc2c(c1)c1c(n2-c2ccccc2-c2cnn(C)c2)CCN(C)C1` [Compound No. 86, 2,8-dimethyl-5-(2-(1-methyl-1H-pyrazol-4-yl)phenyl)-2,3,4,5-tetrahydro-1H-pyrido[4,3-b]indole], the figures for the inhibition at 0.1 µM in experiment [1] and in experiment [2] were 71% and 37%, respectively.
In the same order, the values of `Cc1ccc2c(c1)c1c(n2-c2ccccc2-c2cncc3ccccc23)CCN(C)C1` [Compound No. 87, 5-(2-(isoquinolin-4-yl)phenyl)-2,8-dimethyl-2,3,4,5-tetrahydro-1H-pyrido[4,3-b]indole] are 66% and 24%.
Take `Cc1ccc2c(c1)c1c(n2-c2ccccc2-c2cccn2C)CCN(C)C1` [Compound No. 100, 2,8-dimethyl-5-(2-(1-methyl-1H-pyrrol-2-yl)phenyl)-2,3,4,5-tetrahydro-1H-pyrido[4,3-b]indole]: the inhibition at 0.1 µM was found to be 72% in experiment [1], 95% in experiment [3] and 11% in experiment [2].
As for `Cc1ccc2c(c1)c1c(n2-c2cnc3ccccc3c2)CCN(C)C1` [Compound No. 88, 2,8-dimethyl-5-quinolin-3-yl-2,3,4,5-tetrahydro-1H-pyrido[4,3-b]indole], the inhibition at 0.1 µM in experiment [1] is 90%; in experiment [2], 22%.
On to `Cc1ccc2c(c1)c1c(n2-c2ccccc2-c2cn[nH]c2)CCN(C)C1` [Compound No. 104, 5-(2-(1H-pyrazol-4-yl)phenyl)-2,8-dimethyl-2,3,4,5-tetrahydro-1H-pyrido[4,3-b]indole], for which the inhibition at 0.1 µM on Adrenergic α1B amounted to 9%; in experiment [1], 77%; in experiment [3] it was 14%; in experiment [2] it was 20%.
As for `Cc1ccc2c(c1)c1c(n2-c2ccccc2-c2cccc3[nH]ncc23)CCN(C)C1` [Compound No. 105, 5-(2-(1H-indazol-4-yl)phenyl)-2,8-dimethyl-2,3,4,5-tetrahydro-1H-pyrido[4,3-b]indole], the figures for the inhibition at 0.1 µM in experiment [1] and in experiment [2] were 82% and 56%, respectively.
